29 compounds from patent US9701664B2, “Fused 1,4-dihydrodioxin derivatives as inhibitors of heat shock transcription factor 1” (Cancer Research Technology Limited, priority 2013, dated 2017) can be followed below.

The structures appear in SMILES notation.

The subject of one experiment is HSP72 in U2OS cells. The experiment is described as follows: Cell-based ELISA (Cellisa) assay, U2OS cells: inhibition of 17-AAG-induced HSP72. The settings on record: Homo sapiens; U2OS cells (Examples 1-168). (An ELISA detects its analyte on a solid surface through an enzyme-linked reagent.)
The subject of another experiment is U2OS cells. The experiment is described as follows: Titre Blue cell viability assay, U2OS cells. In kind it is cell-based. Particulars: Homo sapiens, U2OS.

As a reminder, the IC50 is the concentration needed to halve the response being measured. A lower IC50 goes with greater potency. In the case of `CCC(=O)N(C)Cc1ccc2cc(C(=O)Nc3cc(NC(=O)c4ccc5c(c4)OCCO5)ccc3C)ccc2n1` [Example 78, N-(5-(2,3-dihydrobenzo[b][1,4]dioxine-6-carboxamido)-2-methylphenyl)-2-((N-methylpropionamido)methyl)quinoline-6-carboxamide], the IC50 worked out at 45 nM with HSP72 in U2OS cells and 91 nM in the experiment on U2OS cells.
Taken in the same sequence, the figures for `CNc1ccc2cc(C(=O)Nc3cc(NC(=O)c4ccc5c(c4)OCCO5)ccc3C)ccc2n1` [Example 79, N-(5-(2,3-dihydrobenzo[b][1,4]dioxine-6-carboxamido)-2-methylphenyl)-2-(methylamino)quinoline-6-carboxamide] were 70 nM and 54 nM.
In the same order, the values of `Cc1ccc(NC(=O)c2ccc3c(c2)OCCO3)cc1NC(=O)c1ccc2c(c1)CCN2` [Example 84, N-(5-(2,3-dihydrobenzo[b][1,4]dioxine-6-carboxamido)-2-methylphenyl)indoline-5-carboxamide] are 184 nM and 95 nM.
In the case of `Cc1ccc(NC(=O)c2ccc3c(c2)OCCO3)cc1NC(=O)c1ccc2c(c1)CCC(CN(C)C)N2` (stereo not shown) [Example 87, N-(5-(2,3-dihydrobenzo[b][1,4]dioxine-6-carboxamido)-2-methylphenyl)-2-((dimethylamino)methyl)-1,2,3,4-tetrahydroquinoline-6-carboxamide], the half-maximal inhibitory concentration (IC50) was 608 nM in the experiment with HSP72 in U2OS cells and 260 nM in the experiment on U2OS cells.
Taken in the same sequence, the figures for `Cc1ccc(NC(=O)c2ccc3c(c2)OCCO3)cc1NC(=O)c1ccc2nc(N)sc2c1` [Example 91, 2-amino-N-(5-(2,3-dihydrobenzo[b][1,4]dioxine-6-carboxamido)-2-methylphenyl)benzo[d]thiazole-6-carboxamide] were 70 nM and 115 nM.
Taken in the same sequence, the figures for `Cc1ccc(NC(=O)c2ccc3c(c2)OCCO3)cc1NC(=O)c1cnc2[nH]cnc2c1` [Example 92, N-(5-(2,3-dihydrobenzo[b][1,4]dioxine-6-carboxamido)-2-methylphenyl)-3H-imidazo[4,5-b]pyridine-6-carboxamide] were 4410 nM and 3280 nM.
In the same order, the values of `Cc1ccc(NC(=O)c2ccc3c(c2)OCCO3)cc1NC(=O)c1ccc(O)cc1` [Example 93, N-(3-(4-hydroxybenzamido)-4-methylphenyl)-2,3-dihydrobenzo[b][1,4]dioxine-6-carboxamide] are 2460 nM and 798 nM.
`COc1cc(C(=O)Nc2cc(NC(=O)c3ccc4c(c3)OCCO4)ccc2C)cc2sc(N)nc12` [Example 95, 2-amino-N-(5-(2,3-dihydrobenzo[b][1,4]dioxine-6-carboxamido)-2-methylphenyl)-4-methoxybenzo[d]thiazole-6-carboxamide]: the IC50 in the experiment on HSP72 in U2OS cells was found to be 89 nM; in the experiment with U2OS cells it was 156 nM.
Taken in the same sequence, the figures for `Cc1ccc(NC(=O)c2ccc3c(c2)OCCO3)cc1NC(=O)c1ccnc(-n2cncn2)c1` [Example 96, N-(5-(2,3-dihydrobenzo[b][1,4]dioxine-6-carboxamido)-2-methylphenyl)-2-(1H-1,2,4-triazol-1-yl)isonicotinamide] were 4440 nM and 1350 nM.
Taken in the same sequence, the figures for `Cc1ccc(NC(=O)c2ccc3c(c2)OCCO3)cc1NC(=O)c1ccc2[nH]ncc2c1` [Example 97, N-(5-(2,3-dihydrobenzo[b][1,4]dioxine-6-carboxamido)-2-methylphenyl)-1H-indazole-5-carboxamide] were 59 nM and 32 nM.
In the same order, the values of `Cc1cc2cc(C(=O)Nc3cc(NC(=O)c4ccc5c(c4)OCCO5)ccc3C)cnc2[nH]1` [Example 99, N-(5-(2,3-dihydrobenzo[b][1,4]dioxine-6-carboxamido)-2-methylphenyl)-2-methyl-1H-pyrrolo[2,3-b]pyridine-5-carboxamide] are 42 nM and 62 nM.
Turning to `Cc1ccc(NC(=O)c2ccc3c(c2)OCCO3)cc1NC(=O)c1cnc2[nH]ccc2c1` [Example 100, N-(5-(2,3-dihydrobenzo[b][1,4]dioxine-6-carboxamido)-2-methylphenyl)-1H-pyrrolo[2,3-b]pyridine-5-carboxamide], the IC50 worked out at 43 nM with HSP72 in U2OS cells and 54 nM in the experiment on U2OS cells.
Taken in the same sequence, the figures for `Cc1ccc(NC(=O)c2ccc3c(c2)OCCO3)cc1NC(=O)c1ccc(OCc2cscn2)cc1` [Example 101, N-(4-methyl-3-(4-(thiazol-4-ylmethoxy)benzamido)phenyl)-2,3-dihydrobenzo[b][1,4]dioxine-6-carboxamide] were 122 nM and 59 nM.
In the same order, the values of `Cc1ccc(NC(=O)c2ccc3c(c2)OCCO3)cc1NC(=O)c1ccc2c(c1)CCC(=O)N2` [Example 103, N-(5-(2,3-dihydrobenzo[b][1,4]dioxine-6-carboxamido)-2-methylphenyl)-2-oxo-1,2,3,4-tetrahydroquinoline-6-carboxamide] are 60 nM and 74 nM.
Taken in the same sequence, the figures for `Cc1ccc(NC(=O)c2ccc3c(c2)OCCO3)cc1NC(=O)c1ccc(-n2cccn2)cc1` [Example 107, N-(3-(4-(1H-pyrazol-1-yl)benzamido)-4-methylphenyl)-2,3-dihydrobenzo[b][1,4]dioxine-6-carboxamide] were 295 nM and 227 nM.
Take `Cc1cc(NCCN(C)C)c2cc(C(=O)Nc3cc(NC(=O)c4ccc5c(c4)OCCO5)ccc3C)ccc2n1` [Example 110, N-(5-(2,3-dihydrobenzo[b][1,4]dioxine-6-carboxamido)-2-methylphenyl)-4-(2-(dimethylamino)ethylamino)-2-methylquinoline-6-carboxamide]: the IC50 with HSP72 in U2OS cells is 410 nM; in the experiment with U2OS cells, 168 nM.
In the same order, the values of `Cc1ccc2cc(C(=O)Nc3cccc(NC(=O)c4ccc5c(c4)OCCO5)c3)ccc2n1` [Example 113, N-(3-(2,3-dihydrobenzo[b][1,4]dioxine-6-carboxamido)phenyl)-2-methylquinoline-6-carboxamide] are 160 nM and 117 nM.
On to `Cc1ccc2cc(C(=O)Nc3cc(NC(=O)c4ccc5c(c4)OCCO5)ccc3C(F)(F)F)ccc2n1` [Example 129, N-(5-(2,3-dihydrobenzo[b][1,4]dioxine-6-carboxamido)-2-(trifluoromethyl)phenyl)-2-methylquinoline-6-carboxamide], for which the values for the IC50 in the experiment with HSP72 in U2OS cells and in the experiment on U2OS cells were 344 nM and 162 nM, respectively.
`Cc1ccc(NC(=O)c2ccc3c(c2)OCO3)cc1NC(=O)c1ccc2ncccc2c1` [Example 131, N-(5-(benzo[d][1,3]dioxole-5-carboxamido)-2-methylphenyl)quinoline-6-carboxamide]: the values for the IC50 in the experiment on HSP72 in U2OS cells and in the experiment on U2OS cells were 171 nM and 74 nM, respectively.
Taken in the same sequence, the figures for `CCc1ccc(NC(=O)c2ccc3c(c2)OCCO3)cc1NC(=O)c1ccc2ncccc2c1` [Example 133, N-(5-(2,3-dihydrobenzo[b][1,4]dioxine-6-carboxamido)-2-ethylphenyl)quinoline-6-carboxamide] were 127 nM and 111 nM.
In the same order, the values of `Cc1ccc(NC(=O)c2cnc3c(c2)OCCO3)cc1NC(=O)c1ccc2nc(OCCN3CCCC3)ccc2c1` [Example 134, N-(4-methyl-3-(2-(2-(pyrrolidin-1-yl)ethoxy)quinoline-6-carboxamido)phenyl)-2,3-dihydro-[1,4]dioxino[2,3-b]pyridine-7-carboxamide] are 51 nM and 49 nM.
Taken in the same sequence, the figures for `Cc1ccc2cc(C(=O)Nc3cc(NC(=O)c4cnc5c(c4)OCCO5)ccc3C)ccc2n1` [Example 135, N-(4-methyl-3-(2-methylquinoline-6-carboxamido)phenyl)-2,3-dihydro-[1,4]dioxino[2,3-b]pyridine-7-carboxamide] were 27 nM and 29 nM.
Regarding `Cc1ccc(NC(=O)c2ccc3c(c2)OCCO3)cc1NC(=O)c1cc(F)c2ncccc2c1` [Example 136, N-(5-(2,3-dihydrobenzo[b][1,4]dioxine-6-carboxamido)-2-methylphenyl)-8-fluoroquinoline-6-carboxamide], the IC50 was determined as 14 nM with HSP72 in U2OS cells and 4 nM with U2OS cells.
Taken in the same sequence, the figures for `COCc1ccc2cc(C(=O)Nc3cc(NC(=O)c4ccc5c(c4)OCCO5)ccc3C)ccc2n1` [Example 137, N-(5-(2,3-dihydrobenzo[b][1,4]dioxine-6-carboxamido)-2-methylphenyl)-2-(methoxymethyl)quinoline-6-carboxamide] were 15 nM and 26 nM.
In the same order, the values of `O=C(Nc1ccc(Br)c(NC(=O)c2ccc3ncccc3c2)c1)c1ccc2c(c1)OCCO2` [Example 138, N-(2-bromo-5-(2,3-dihydrobenzo[b][1,4]dioxine-6-carboxamido)phenyl)quinoline-6-carboxamide] are 31 nM and 10 nM.
Taken in the same sequence, the figures for `O=C(Nc1ccc(Br)c(NC(=O)c2ccc3nc(OCCN4CCCC4)ccc3c2)c1)c1ccc2c(c1)OCCO2` [Example 139, N-(2-bromo-5-(2,3-dihydrobenzo[b][1,4]dioxine-6-carboxamido)phenyl)-2-(2-(pyrrolidin-1-yl)ethoxy)quinoline-6-carboxamide] were 20 nM and 23 nM.
As for `N#Cc1ccc(NC(=O)c2ccc3c(c2)OCCO3)cc1NC(=O)c1ccc2ncccc2c1` [Example 140, N-(2-cyano-5-(2,3-dihydrobenzo[b][1,4]dioxine-6-carboxamido)phenyl)quinoline-6-carboxamide], the IC50 in the experiment with HSP72 in U2OS cells came to 31 nM; with U2OS cells, 34 nM.
Taken in the same sequence, the figures for `Cc1ccc(NC(=O)c2ccc3c(c2)OCCO3)cc1NC(=O)c1cnc2c(c1)CCCC2` [Example 141, N-(5-(2,3-dihydrobenzo[b][1,4]dioxine-6-carboxamido)-2-methylphenyl)-5,6,7,8-tetrahydroquinoline-3-carboxamide] were 32 nM and 44 nM.
In the case of `Cc1ccc(NC(=O)c2ccc3c(c2)OCCO3)cc1NC(=O)c1ccc2c(c1)CCCN2C` [Example 143, N-(5-(2,3-dihydrobenzo[b][1,4]dioxine-6-carboxamido)-2-methylphenyl)-1-methyl-1,2,3,4-tetrahydroquinoline-6-carboxamide], the IC50 in the experiment with HSP72 in U2OS cells is 55 nM; in the experiment with U2OS cells it was 26 nM.
